In publication PMC5710999, “Statistical investigation of the full concentration range of fasted and fed simulated intestinal fluid on the equilibrium solubility of oral drugs” (European Journal of Pharmaceutical Sciences, 2018):
“Also recorded” adds a separate entry of the source.

Assays:
[1] = Equilibrium solubility in full range (fasted to fed) design of experiment simulated intestinal media; assay type: physicochemical; conditions: for Comparison of combined fasted and fed solubility data with the full range DoE: Mann-Whitney test on equilibrium solubility distributions; for Variability of equilibrium solubility values: Fig. 1 and 2; for Comparison between all solubility data sets (fasted, fed, combined, full range) / Comparison of published fed DoE solubility distribution with full range DoE / Comparison of published fasted DoE solubility distribution with full range DoE: Mann-Whitney test; for Comparison between all solubility data sets (fasted, fed, combined, full range): Fig. 2b; for Effect of pH on equilibrium solubility: pH 5 to 7; for Comparison of published fed DoE solubility distribution with full range DoE: fed state; for Comparison of published fasted DoE solubility distribution with full range DoE: fasted state
Description: A quarter of the full factorial design of experiment with 7 factors (either a component concentration or a system parameter such as pH) and 2 levels (upper and lower limits) was constructed and analysed using Minitab®17.2.1. Minitab generated 32 different experiments by various combinations of the upper and lower limits of the 7 factors based on Table 1 (no centre point and no replicate). When designing and analysing the DoE assumptions were made. […] Only main effects and 2-way interactions are considered in the analysis and 3-way interactions or more were not considered. […] The single factors and factor interactions are confounded with 3 to 6-way interactions which were not included. There are three confounded 2-way factor interactions, sodium oleate and salt with buffer and monoglyceride, sodium oleate and buffer with salt and monoglyceride, sodium oleate and monoglyceride with salt and buffer. For these interactions if the result is significant then any conclusions must be drawn with caution as it might be the result of the four factors together or only one of the 2 way interactions. […] The main effect can be positive (+) or negative (−), but when it is involved in an interaction, the conclusion will be considered with the interactions (±).
The Kolmogorov normality test was used in Minitab® to assess the distribution of each data set, based on the result that all data sets have a non-normal distribution the Mann-Whitney test was applied to evaluate differences between two data sets.
A stream of nitrogen gas was used to remove the chloroform ensuring a dry film was produced. Water was added to reform the dried film, stirred to obtain a homogenous mixture, transferred to a volumetric flask (5 ml) and made to volume with water.
Salt and buffer stock solution: Sodium chloride (4.448 g) and monosodium phosphate (NaH2PO4) (2.395 g) were weighed into a 25 ml volumetric flask, dissolved and made up to the volume with water.
Sodium oleate: Sodium oleate (1.978 g) was weighed into a 25 ml volumetric flask, dissolved in water under gentle heat and made to final volume. Solution was then kept at 50 °C to aid solubilisation.
The concentration of each stock mixture has been designed to be 15 times greater than the upper limit concentration value required for the DoE, with the exception of sodium oleate where only a 5 times concentration was possible. The stock mixtures were combined to provide the 32 measurement solutions according to the DoE model.
This protocol has been previously validated to ensure equilibrium solubility is achieved after 24 h with no methodological interference ([Khadra et al., 2015], [Zhou et al., 2017]). A weight of powdered drug (10 mg) was added to a centrifuge tube (15 ml Corning®). The required volume of each stock solution (section above) and water was added to provide a final volume of 4 ml in every tube. pH was then adjusted to 5 or 7 using 0.1 M HCL or 0.1 M KOH. Tubes were shaken for 1 h at room temperature and then pH adjusted again as before. Tubes are then placed in an orbital shaker and incubated for 24 h at 37 °C and 240 rpm. Following incubation the tubes were checked for the presence of solid drug, then centrifuged (13,000 rpm, 5 min) and the supernatant (500 μl) was sampled to determine the solubilised drug concentration by HPLC.

[2] = quoted without reference; cited from earlier work
[3] = design: method as in Khadra et al., 2015; conditions: ref Khadra et al., 2015, cited from earlier work; for Effect of buffer on equilibrium solubility in the fasted study: fasted DoE; for Statistical significance of DoE factor Bile Salt on equilibrium solubility, Fstd / Statistical significance of DoE factor Buffer on equilibrium solubility, Fstd / Statistical significance of DoE factor Oleate on equilibrium solubility, Fstd / Statistical significance of DoE factor pH on equilibrium solubility, Fstd / Statistical significance of DoE factor Lecithin on equilibrium solubility, Fstd / Statistical significance of DoE factor Salt on equilibrium solubility, Fstd: fasted media design of experiment
[4] = design: method as in Zhou et al., 2017; conditions: fed media design of experiment; ref Zhou et al., 2017; cited from earlier work
[5] = cited from earlier work; for pKa: quoted without reference
[6] = full range media design of experiment, p < 0.05
[7] = full range DoE, standardised effect

| Compound | Comparison of combined fasted and fed solubility data with the full range DoE [1] | Variability of equilibrium solubility values ([1]; full range DoE) | Statistical significance of DoE factor Bile Salt on equilibrium solubility, Full [1, 6] | Statistical significance of DoE factor Oleate on equilibrium solubility, Full [1, 6] | Statistical significance of DoE factor pH on equilibrium solubility, Full [1, 6] | Effect of sodium oleate on equilibrium solubility [1, 7] | Effect of pH on equilibrium solubility [1, 7] | Effect of bile salt on equilibrium solubility [1, 7] | log P [2] | Statistical significance of DoE factor Bile Salt on equilibrium solubility, Fstd [3] | Statistical significance of DoE factor Buffer on equilibrium solubility, Fstd [3] | Statistical significance of DoE factor Oleate on equilibrium solubility, Fstd [3] | Statistical significance of DoE factor pH on equilibrium solubility, Fstd [3] | Statistical significance of DoE factor Bile Salt on equilibrium solubility, Fed [4] | Statistical significance of DoE factor Oleate on equilibrium solubility, Fed [4] | Statistical significance of DoE factor pH on equilibrium solubility, Fed [4] | Statistical significance of DoE factor Lecithin on equilibrium solubility, Fstd [3] | also measured |
| --- | --- | --- | --- | --- | --- | --- | --- | --- | --- | --- | --- | --- | --- | --- | --- | --- | --- | --- |
| CC(C)(Sc1cc(C(C)(C)C)c(O)c(C(C)(C)C)c1)Sc1cc(C(C)(C)C)c(O)c(C(C)(C)C)c1 [Probucol, probucol] | no significant difference |  |  |  |  |  |  |  | 10.9 |  |  |  |  |  |  |  |  | Influence of any DoE factor on equilibrium solubility ([1]; full range DoE): not significantly influenced by any of the factors |
| CCCCCCCC/C=C\CCCCCCCC(=O)O [oleate, Sodium oleate] |  |  |  |  |  |  |  |  |  |  |  |  |  |  |  |  |  | pKa of acidic media factors ([5]; ref Holm et al., 2013): approximately 5 |
| C[C@@H](O[C@H]1OCCN(Cc2n[nH]c(=O)[nH]2)[C@H]1c1ccc(F)cc1)c1cc(C(F)(F)F)cc(C(F)(F)F)c1 [Aprepitant, aprepitant] | significantly different | more consistency |  | S | S | positively affected | significant effect |  | 4.5 | S |  | S | S | S | S | S |  | Comparison between all solubility data sets (fasted, fed, combined, full range) [1]: statistically significant difference between all data sets; Statistical significance of DoE factor Buffer on equilibrium solubility, Fed [4]: S; Statistical significance of DoE factor Lecithin on equilibrium solubility, Fed [4]: S; Statistical significance of DoE factor Salt on equilibrium solubility, Fed [4]: S |
| O=C1NC(=O)C(c2ccccc2)(c2ccccc2)N1 [Phenytoin, phenytoin] | no significant difference | more consistency; also recorded: very consistent |  | S | S |  |  |  |  | S | S | S | S | S | S | S | S | Comparison of published fasted DoE solubility distribution with full range DoE [1]: statistically equivalent; Effect of buffer on equilibrium solubility in the fasted study [3]: positive effect; Statistical significance of DoE factor Salt on equilibrium solubility, Fstd [3]: S; Statistical significance of DoE factor Monoglyceride on equilibrium solubility, Fed [4]: S |

Further lines, with some results ahead:

| Comparison of combined fasted and fed solubility data with the full range DoE [1] | Variability of equilibrium solubility values ([1]; full range DoE) | Statistical significance of DoE factor Bile Salt on equilibrium solubility, Full [1, 6] | Statistical significance of DoE factor Oleate on equilibrium solubility, Full [1, 6] | Statistical significance of DoE factor pH on equilibrium solubility, Full [1, 6] | Effect of sodium oleate on equilibrium solubility [1, 7] | Effect of pH on equilibrium solubility [1, 7] | Effect of bile salt on equilibrium solubility [1, 7] | Compound | log P [2] | Statistical significance of DoE factor Bile Salt on equilibrium solubility, Fstd [3] | Statistical significance of DoE factor Buffer on equilibrium solubility, Fstd [3] | Statistical significance of DoE factor Oleate on equilibrium solubility, Fstd [3] | Statistical significance of DoE factor pH on equilibrium solubility, Fstd [3] | Statistical significance of DoE factor Bile Salt on equilibrium solubility, Fed [4] | Statistical significance of DoE factor Oleate on equilibrium solubility, Fed [4] | Statistical significance of DoE factor pH on equilibrium solubility, Fed [4] | Statistical significance of DoE factor Lecithin on equilibrium solubility, Fstd [3] | also measured |
| --- | --- | --- | --- | --- | --- | --- | --- | --- | --- | --- | --- | --- | --- | --- | --- | --- | --- | --- |
| no significant difference | larger variability | S | S | S |  |  |  | COc1ccc2c(c1)c(CC(=O)O)c(C)n2C(=O)c1ccc(Cl)cc1 [Indomethacin, indomethacin] |  | S | S | S | S | S | S | S |  | Effect of buffer on equilibrium solubility in the fasted study [3]: negative effect |
| no significant difference |  | S |  | S |  | significant effect | positively affects | COc1cc(C(=O)NS(=O)(=O)c2ccccc2C)ccc1Cc1cn(C)c2ccc(NC(=O)OC3CCCC3)cc12 [Zafirlukast, zafirlukast] |  | S |  | S | S | S |  | S | S | Comparison of published fed DoE solubility distribution with full range DoE [1]: statistically equivalent; pKa [5]: 4.3 |
| significantly different | large variability | S | S | S | positive effect | affected | positive effect | CCOC(=O)C1=C(C)NC(C)=C(C(=O)OC)C1c1cccc(Cl)c1Cl (stereo not shown) [Felodipine, felodipine] | 3.8 | S |  | S | S | S | S | S | S | Comparison of published fed DoE solubility distribution with full range DoE [1]: statistically equivalent; Effect of lecithin on equilibrium solubility [1, 7]: affected; Statistical significance of DoE factor Lecithin on equilibrium solubility, Full [1, 6]: S; Statistical significance of DoE factor Lecithin on equilibrium solubility, Fed [4]: S |
| significantly different | large variability | S | S |  | positively affected | not | positively affects | CN1CC(=O)N2[C@H](c3ccc4c(c3)OCO4)c3[nH]c4ccccc4c3C[C@@H]2C1=O [Tadalafil, tadalafil] |  | S | S | S | S | S | S |  | S | Comparison between all solubility data sets (fasted, fed, combined, full range) [1]: statistically significant difference between all data sets; Statistical significance of DoE factor Salt on equilibrium solubility, Fstd [3]: S; pKa [5]: 10 |
| no significant difference |  |  | S | S | positively affected | significant effect |  | COc1ccccc1OCCNCC(O)COc1cccc2[nH]c3ccccc3c12 (stereo not shown) [Carvedilol, carvedilol] |  | S |  | S | S | S | S | S | S | Comparison of published fasted DoE solubility distribution with full range DoE [1]: statistically equivalent; Statistical significance of DoE factor Buffer on equilibrium solubility, Fed [4]: S; Statistical significance of DoE factor Monoglyceride on equilibrium solubility, Fed [4]: S |
